Source: article doi:10.1101/2025.09.24.678246 (bioRxiv, 2025)
≈ marks a conversion by molar mass, not a printed value. Where “and” joins values, the source holds several entries; their conditions need not be identical. Identical values can stand only once. Entries after “also recorded” stand apart in the source; their conditions may differ. Like-named read-outs stand apart in the source and are kept apart here.

Legend:
[1] = test system: H37Rv ΔbioA TetON-1 (BioA-OE); format: cell-based; conditions: for normalized growth (no drug = 100): Fig. 2C, BioA-OE
[2] = test system: H37Rv ΔbioA TetON-5 (BioA-UE); format: cell-based; conditions: Fig. 2C
WT H37Rv = format: cell-based, Mycobacterium tuberculosis
[3] = test system: C48-resistant Mtb H37Rv mutants; format: cell-based, Mycobacterium tuberculosis; conditions: for susceptibility of C48-resistant mutants: compared with parent strain
[4] = test system: drug sensitive and resistant Mtb isolates; assay: microbe, parasite or virus in culture; format: cell-based; conditions: Mycobacterium tuberculosis
[5] = M. tb CRC clinical strain K5072429, DS

Structure (SMILES): O=C1CCc2cc(N3CCN(C(=O)c4ccc(F)c(Br)c4)CC3)ncc21 [C48]
- potency with increasing expression of BioA ([1]; ATc-inducible BioA overexpression): decreases monotonically
- normalized growth (no drug = 100) ([1]; [C48] 0.02 µM): 99.1764 and 99.8577 and 98.7033
- normalized growth (no drug = 100) ([1]; [C48] 0.0434 µM): 95.2869 and 101.385 and 96.6682
- normalized growth (no drug = 100) ([1]; [C48] 0.0941 µM): 94.175 and 96.4099 and 95.7333
- normalized growth (no drug = 100) ([1]; [C48] 0.204 µM): 92.9284 and 86.8526 and 87.9532
- normalized growth (no drug = 100) ([1]; [C48] 0.443 µM): 34.2705 and 25.7913 and 36.1572
- normalized growth (no drug = 100) ([1]; [C48] 0.96 µM): 3.4759 and 3.24 and 3.555
- normalized growth (no drug = 100) ([1]; [C48] 4.52 µM): 1.679 and 2.083 and 1.432
- normalized growth (no drug = 100) ([1]; [C48] 21.3 µM): 2.409 and 2.139 and 2.1956
- normalized growth (no drug = 100) ([1]; [C48] 46.1 µM): 1.96 and 2.297 and 2.072
- normalized growth (no drug = 100) ([1]; [C48] 100 µM): 1.477 and 2.083 and 1.862
- normalized growth (no drug = 100) ([2]; [C48] 0.02 µM): 85.8582 and 52.7583 and 51.6425
- normalized growth (no drug = 100) ([2]; [C48] 0.0434 µM): 81.0305 and 46.7008 and 49.5132
- normalized growth (no drug = 100) ([2]; [C48] 0.443 µM): 0.2448 and 0.3701 and 0.3017
- normalized growth (no drug = 100) ([2]; [C48] 4.52 µM): 0.6433 and 0.5522 and 0.8369
- normalized growth (no drug = 100) ([2]; [C48] 21.3 µM): 0.723 and 0.8369 and 1.008
- normalized growth (no drug = 100) ([2]; [C48] 46.1 µM): 1.133 and 0.9394 and 1.076
- normalized growth (no drug = 100) ([2]; [C48] 100 µM): 0.9037 and 0.9849 and 0.9735
- frequency of spontaneously resistant mutants (WT H37Rv): approximately 3×10^−8
- MIC shift compared to WT [3]: Large; also recorded: Medium
- increase in MIC of 30 resistant mutants compared to WT H37Rv [3]: approximately 300 fold
- resistance level of bioA mutant Met91Ile [3]: high-level resistance
- resistance level of bioA mutants Met91Val, Met91Thr, Cys168Tyr [3]: medium-level resistance
- MIC [4, 5]: < 0.024 µM
- MIC ([4]; M. tb Erdman, DS): 0.024 µM (≈ 0.01 µg/mL)
- MIC ([4]; M. tb HN878, DS): 0.0156 µM (≈ 0.00652 µg/mL)
- MIC ([4]; M. tb K03b00DS, DS): 0.047 µM (≈ 0.0197 µg/mL)
- MIC ([4]; M. tb K04b00DS, DS): 0.023 µM (≈ 0.00962 µg/mL)
- MIC ([4]; M. tb K05b00DS, DS): 0.0156 µM (≈ 0.00652 µg/mL)
- MIC ([4]; M. tb K07b00DS, DS): 0.023 µM (≈ 0.00962 µg/mL)
- MIC ([4]; M. tb K08b00DS, DS): < 0.024 µM
- MIC ([4]; M. tb K09b00DS, DS): 0.023 µM (≈ 0.00962 µg/mL)
- MIC ([4]; M. tb K10b00DS, DS): < 0.024 µM
- MIC ([4]; M. tb K11b00DS, DS): 0.0625 µM (≈ 0.0261 µg/mL)
- MIC ([4]; M. tb K12b00DS, DS): 0.023 µM (≈ 0.00962 µg/mL)
- MIC ([4]; M. tb K13b00DS, DS): 0.023 µM (≈ 0.00962 µg/mL)
- MIC ([4]; M. tb K14b00DS, DS): 0.0156 µM (≈ 0.00652 µg/mL)
- MIC ([4]; M. tb K15b00DS, DS): < 0.024 µM
- MIC ([4]; M. tb K16b00DS, DS): < 0.024 µM
- MIC ([4]; M. tb K17b00DS, DS): < 0.024 µM
- MIC ([4]; M. tb K35b00DS, DS): < 0.024 µM
- MIC ([4]; M. tb NIH1B314, DR): 0.0313 µM (≈ 0.0131 µg/mL)
- MIC ([4]; M. tb NIH_G1DS, DS): < 0.024 µM
- MIC ([4]; M. tb NIH_G9R, DR): 0.0156 µM (≈ 0.00652 µg/mL)
- MIC ([4]; M. tb NIH_G10R, DR): 0.0313 µM (≈ 0.0131 µg/mL)
- MIC ([4]; M. tb NIH_G11R, DR): 0.0156 µM (≈ 0.00652 µg/mL)
- MIC ([4]; M. tb NIH_G12, DS): < 0.024 µM
- MIC ([4]; M. tb NIH_G16R, DR): < 0.024 µM
- MIC ([4]; M. tb NIH_G17R, DR): < 0.024 µM
- MIC ([4]; M. tb NIH_G22R, DR): < 0.024 µM
- MIC ([4]; M. tb NIH_GA36, DS): < 0.024 µM
- MIC ([4]; M. tb NIH_SA3, DS): < 0.024 µM
- MIC ([4]; M. tb NIH_SA23, DS): < 0.024 µM
- MIC ([4]; M. tb NIH_SA27, DS): < 0.024 µM
- MIC ([4]; M. tb NIH_SA39, DS): < 0.024 µM
- MIC ([4]; M. tb NIH_SA43, DS): < 0.024 µM
- MIC ([4]; M. tb NIH_SA125, DS): < 0.024 µM

Structure (SMILES): NNC(=O)c1ccncc1 [INH, isoniazid, reference compound]
- susceptibility of C48-resistant mutants [3]: retained susceptibility

Structure (SMILES): CC(=O)NC[C@H]1CN(c2ccc(N3CCOCC3)c(F)c2)C(=O)O1 [Linezolid, reference compound]
- MIC ([4]; M. tb CDC1551, DS): 1.2 µM (≈ 0.405 µg/mL)
- MIC [4, 5]: 1.2 µM (≈ 0.405 µg/mL)
- MIC ([4]; M. tb Erdman, DS): 1.6 µM (≈ 0.54 µg/mL)
- MIC ([4]; M. tb K03b00DS, DS): 2.3 µM (≈ 0.776 µg/mL)
- MIC ([4]; M. tb K04b00DS, DS): 1.2 µM (≈ 0.405 µg/mL)
- MIC ([4]; M. tb K07b00DS, DS): 2.3 µM (≈ 0.776 µg/mL)
- MIC ([4]; M. tb K09b00DS, DS): 1.2 µM (≈ 0.405 µg/mL)
- MIC ([4]; M. tb K13b00DS, DS): 1.2 µM (≈ 0.405 µg/mL)
- MIC ([4]; M. tb K14b00DS, DS): 1.2 µM (≈ 0.405 µg/mL)
- MIC ([4]; M. tb K35b00DS, DS): 1.2 µM (≈ 0.405 µg/mL)
- MIC ([4]; M. tb NIH_G1DS, DS): 2.3 µM (≈ 0.776 µg/mL)
- MIC ([4]; M. tb NIH_G9R, DR): 2.3 µM (≈ 0.776 µg/mL)
- MIC ([4]; M. tb NIH_G11R, DR): 2.3 µM (≈ 0.776 µg/mL)
- MIC ([4]; M. tb NIH_G12, DS): 2.3 µM (≈ 0.776 µg/mL)
- MIC ([4]; M. tb NIH_G16R, DR): 3.13 µM (≈ 1.06 µg/mL)
- MIC ([4]; M. tb NIH_G17R, DR): 3.13 µM (≈ 1.06 µg/mL)
- MIC ([4]; M. tb NIH_G22R, DR): 3.13 µM (≈ 1.06 µg/mL)
- MIC ([4]; M. tb NIH_GA36, DS): 1.6 µM (≈ 0.54 µg/mL)

Structure (SMILES): CO[C@H]1/C=C/O[C@@]2(C)Oc3c(C)c(O)c4c(O)c(c(/C=N/N5CCN(C)CC5)c(O)c4c3C2=O)NC(=O)/C(C)=C\C=C\[C@H](C)[C@H](O)[C@@H](C)[C@@H](O)[C@@H](C)[C@H](OC(C)=O)[C@@H]1C [Rifampicin, rifampicin, reference compound]
- susceptibility of C48-resistant mutants [3]: retained susceptibility
